# Source: patent US20130102595A1 (Curis, Inc., priority 2011, published 2013)
# What was measured:
# [1] = system: HDACs (HeLa cell nuclear extracts); assay: HDAC enzymatic activity, Biomol Color de Lys system; assay type: biochemical; conditions: 1 hour, 25° C.
# In short: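 IC50 from sigmoidal fit of developer-terminated fluorescence (ex 350-380/em 440-460 nm). Reaction: 1 h at room temperature (25 °C), HeLa nuclear extract as HDAC source, artificial substrate, buffer of 50 mM Tris/Cl pH 8.0 with 137 mM NaCl, 2.7 mM KCl and 1 mM MgCl2.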
# [2] = molecular target: T1, PI3Kα (p110α/p85α) (Homo sapiens, UniProt P42336); assay: PI3Kα ADP-Glo assay; assay type: biochemical; conditions: 20 μM PIP2, 10 μM ATP, 30 minutes
# T1 construct: GST (N); made in house; host or cells: Baculovirus-infected Sf9 cells
# In short: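 Luminescent ADP-Glo detection, after depletion of residual ATP, quantified ADP made by PI3Kα phosphorylating 20 μM PIP2 at 10 μM ATP. The kinase step ran 30 min at room temperature in HEPES pH 7.4 with MgCl2, DTT and orthovanadate, using baculovirus/Sf9-expressed full-length p110α/p85α complex.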
# T1 sequence (P42336 whole entry): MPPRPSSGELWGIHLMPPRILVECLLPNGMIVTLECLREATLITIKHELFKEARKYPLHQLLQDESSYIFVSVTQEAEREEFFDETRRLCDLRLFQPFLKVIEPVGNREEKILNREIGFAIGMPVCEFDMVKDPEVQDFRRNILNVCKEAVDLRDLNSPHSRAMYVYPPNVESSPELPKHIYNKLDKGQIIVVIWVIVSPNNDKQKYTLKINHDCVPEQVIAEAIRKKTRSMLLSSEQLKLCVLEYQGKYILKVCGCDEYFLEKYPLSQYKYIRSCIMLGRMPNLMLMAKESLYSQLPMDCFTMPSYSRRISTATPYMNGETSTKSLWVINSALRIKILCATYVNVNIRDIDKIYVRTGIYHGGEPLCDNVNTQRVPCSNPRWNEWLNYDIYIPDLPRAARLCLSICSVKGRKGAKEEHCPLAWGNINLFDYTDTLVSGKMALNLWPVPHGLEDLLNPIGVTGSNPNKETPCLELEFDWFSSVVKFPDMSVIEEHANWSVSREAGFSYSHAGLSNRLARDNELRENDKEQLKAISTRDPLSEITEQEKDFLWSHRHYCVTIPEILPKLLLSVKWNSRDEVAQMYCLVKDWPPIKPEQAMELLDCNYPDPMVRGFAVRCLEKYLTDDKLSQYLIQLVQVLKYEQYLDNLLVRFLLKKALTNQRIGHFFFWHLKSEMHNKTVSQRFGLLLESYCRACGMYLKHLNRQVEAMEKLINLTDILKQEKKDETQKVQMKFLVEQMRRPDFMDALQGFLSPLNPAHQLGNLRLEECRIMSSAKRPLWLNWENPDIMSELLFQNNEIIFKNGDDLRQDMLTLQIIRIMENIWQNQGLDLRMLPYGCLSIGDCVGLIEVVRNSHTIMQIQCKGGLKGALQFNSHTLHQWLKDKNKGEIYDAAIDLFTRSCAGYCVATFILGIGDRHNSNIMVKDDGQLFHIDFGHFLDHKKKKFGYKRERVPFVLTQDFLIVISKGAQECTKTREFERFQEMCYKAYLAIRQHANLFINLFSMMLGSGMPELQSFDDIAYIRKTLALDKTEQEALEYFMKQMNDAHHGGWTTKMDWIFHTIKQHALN
# T1 sequence (P27986 whole entry partner): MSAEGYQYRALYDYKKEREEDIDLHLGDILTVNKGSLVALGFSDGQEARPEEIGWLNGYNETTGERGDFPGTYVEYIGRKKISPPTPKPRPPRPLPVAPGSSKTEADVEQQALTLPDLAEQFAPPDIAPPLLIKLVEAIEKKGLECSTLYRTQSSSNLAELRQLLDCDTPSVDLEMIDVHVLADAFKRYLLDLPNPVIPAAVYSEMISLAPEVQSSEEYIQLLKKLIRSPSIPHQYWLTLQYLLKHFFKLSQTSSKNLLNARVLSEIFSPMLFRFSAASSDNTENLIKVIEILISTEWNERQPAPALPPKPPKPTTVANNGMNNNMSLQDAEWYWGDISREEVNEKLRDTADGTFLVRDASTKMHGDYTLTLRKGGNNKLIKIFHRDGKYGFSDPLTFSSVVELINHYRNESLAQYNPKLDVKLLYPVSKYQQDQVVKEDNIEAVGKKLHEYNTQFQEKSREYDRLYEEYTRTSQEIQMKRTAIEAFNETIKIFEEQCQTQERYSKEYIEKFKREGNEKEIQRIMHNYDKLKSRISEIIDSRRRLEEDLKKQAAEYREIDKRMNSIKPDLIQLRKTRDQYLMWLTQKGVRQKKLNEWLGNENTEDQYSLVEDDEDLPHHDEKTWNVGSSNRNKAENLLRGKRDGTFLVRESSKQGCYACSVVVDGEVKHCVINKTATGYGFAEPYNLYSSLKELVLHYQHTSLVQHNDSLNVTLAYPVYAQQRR
SMILES,melting point [°C],IC50 [1] [nM],IC50 [2] [nM]
"COc1ccc(-c2nc(N3CCOCC3)c3sc(C(C)(C)N(C)c4ncc(C(=O)NO)cn4)cc3n2)cn1 [Compound 251, N-Hydroxy-2-((2-(2-(6-methoxypyridin-3-yl)-4-morpholinothieno[3,2-d]pyrimidin-6-yl)propan-2-yl)(methyl)amino)pyrimidine-5-carboxamide]",175 to 178,< 100,1000 to 10000
"COc1ccc(-c2nc(N3CCOCC3)c3sc(S(=O)(=O)Nc4ncc(C(=O)NO)cn4)cc3n2)cn1 [Compound 252, 2-[2-(6-Methoxy-pyridin-3-yl)-4-morpholin-4-yl-thieno[3,2-d]pyrimidine-6-sulfonylamino]-pyrimidine-5-carboxylic acid hydroxyamide]",259 to 265,< 100,< 100
"CCOc1ccc(-c2nc(N3CCOCC3)c3sc(CN(C)c4ncc(C(=O)NO)cn4)cc3n2)cn1 [Compound 255, 2-(((2-(6-ethoxypyridin-3-yl)-4-morpholinothieno[3,2-d]pyrimidin-6-yl)methyl)(methyl)amino)-N-hydroxypyrimidine-5-carboxamide]",162 to 165,< 100,< 100
"CN(C)CCOc1ccc(-c2nc(N3CCOCC3)c3sc(CN(C)c4ncc(C(=O)NO)cn4)cc3n2)cn1 [Compound 257, 2-(((2-(6-(2-(Dimethylamino)ethoxy)pyridin-3-yl)-4-morpholinothieno[3,2-d]pyrimidin-6-yl)methyl)(methyl)amino)-N-hydroxypyrimidine-5-carboxamide]",140 to 143,< 100,> 10000
"CNCCOc1ccc(-c2nc(N3CCOCC3)c3sc(CN(C)c4ncc(C(=O)NO)cn4)cc3n2)cn1 [Compound 258, N-Hydroxy-2-(methyl((2-(6-(2-(methylamino)ethoxy)pyridin-3-yl)-4-morpholinothieno[3,2-d]pyrimidin-6-yl)methyl)amino)pyrimidine-5-carboxamide]",170 to 175,< 100,> 10000
"CN(Cc1cc2nc(-c3ccc(OCCN)nc3)nc(N3CCOCC3)c2s1)c1ncc(C(=O)NO)cn1 [Compound 259, 2-(((2-(6-(2-Aminoethoxy)pyridin-3-yl)-4-morpholinothieno[3,2-d]pyrimidin-6-yl)methyl)(methyl)amino)-N-hydroxypyrimidine-5-carboxamide]",110 to 115,< 100,> 10000
"COc1ncc(-c2nc(N3CCOCC3)c3sc(C(C)N(C)c4ncc(C(=O)NO)cn4)cc3n2)cn1 (stereo not drawn) [Compound 262, N-Hydroxy-2-((1-(2-(2-methoxypyrimidin-5-yl)-4-morpholinothieno[3,2-d]pyrimidin-6-yl)ethyl)(methyl)amino)pyrimidine-5-carboxamide]",210 to 215,< 100,< 100
"COc1ncc(-c2nc(N3CCOCC3)c3sc(C(C)(C)Nc4ncc(C(=O)NO)cn4)cc3n2)cn1 [Compound 263, N-Hydroxy-2-(2-(2-(2-methoxypyrimidin-5-yl)-4-morpholinothieno[3,2-d]pyrimidin-6-yl)propan-2-ylamino)pyrimidine-5-carboxamide]",202 to 207,< 100,< 100
"Nc1ccc(-c2nc(N3CCOCC3)c3sc(S(=O)(=O)Nc4ncc(C(=O)NO)cn4)cc3n2)cc1 [Compound 271, 2-[2-(4-Amino-phenyl)-4-morpholin-4-yl-thieno[3,2-d]pyrimidine-6-sulfonylamino]-pyrimidine-5-carboxylic acid hydroxyamide]",197 to 205,< 100,< 100
"CN(Cc1cc2nc(-c3ccc(N)c(Cl)c3)nc(N3CCOCC3)c2s1)c1ncc(C(=O)NO)cn1 [Compound 275, 2-(((2-(4-Amino-3-chlorophenyl)-4-morpholinothieno[3,2-d]pyrimidin-6-yl)methyl)(methyl)amino)-N-hydroxypyrimidine-5-carboxamide]",241 to 246,< 100,100 to 1000
"CN(Cc1cc2nc(-c3ccc(N)c(F)c3)nc(N3CCOCC3)c2s1)c1ncc(C(=O)NO)cn1 [Compound 276, 2-(((2-(4-Amino-3-fluorophenyl)-4-morpholinothieno[3,2-d]pyrimidin-6-yl)methyl)(methyl)amino)-N-hydroxypyrimidine-5-carboxamide]",203 to 206,< 100,< 100
"CN(Cc1cc2nc(-c3ccc(N)c([N+](=O)[O-])c3)nc(N3CCOCC3)c2s1)c1ncc(C(=O)NO)cn1 [Compound 278, 2-(((2-(4-Amino-3-nitrophenyl)-4-morpholinothieno[3,2-d]pyrimidin-6-yl)methyl)(methyl)amino)-N-hydroxypyrimidine-5-carboxamide]",202 to 206,< 100,< 100
"CN(Cc1cc2nc(-c3ccc(N)c(O)c3)nc(N3CCOCC3)c2s1)c1ncc(C(=O)NO)cn1 [Compound 279, 2-(((2-(4-Amino-3-hydroxyphenyl)-4-morpholinothieno[3,2-d]pyrimidin-6-yl)methyl)(methyl)amino)-N-hydroxypyrimidine-5-carboxamide]",214 to 218,< 100,< 100
"CN(Cc1cc2nc(-c3ccc(N)c(C#N)c3)nc(N3CCOCC3)c2s1)c1ncc(C(=O)NO)cn1 [Compound 280, 2-(((2-(4-Amino-3-cyanophenyl)-4-morpholinothieno[3,2-d]pyrimidin-6-yl)methyl)(methyl)amino)-N-hydroxypyrimidine-5-carboxamide]",237 to 240,< 100,100 to 1000
"CC(=O)c1cc(-c2nc(N3CCOCC3)c3sc(CN(C)c4ncc(C(=O)NO)cn4)cc3n2)ccc1N [Compound 281, 2-{[2-(3-Acetyl-4-amino-phenyl)-4-morpholin-4-yl-thieno[3,2-d]pyrimidin-6-ylmethyl]-methyl-amino}-pyrimidine-5-carboxylic acid hydroxyamide]",156 to 158,< 100,100 to 1000
"CN(Cc1cc2nc(-c3cc(F)c(N)c(F)c3)nc(N3CCOCC3)c2s1)c1ncc(C(=O)NO)cn1 [Compound 282, 2-(((2-(4-Amino-3,5-difluorophenyl)-4-morpholinothieno[3,2-d]pyrimidin-6-yl)methyl)(methyl)amino)-N-hydroxypyrimidine-5-carboxamide]",190 to 193,< 100,100 to 1000
"CN(Cc1cc2nc(-c3ccc(N)cc3F)nc(N3CCOCC3)c2s1)c1ncc(C(=O)NO)cn1 [Compound 283, 2-{[2-(4-Amino-2-fluoro-phenyl)-4-morpholin-4-yl-thieno[3,2-d]pyrimidin-6-ylmethyl]-methyl-amino}-pyrimidine-5-carboxylic acid hydroxyamide]",195 to 197,< 100,100 to 1000
"CN(Cc1cc2nc(-c3cccc(SCCO)c3)nc(N3CCOCC3)c2s1)c1ncc(C(=O)NO)cn1 [Compound 290, N-Hydroxy-2-(((2-(3-(2-hydroxyethylthio)phenyl)-4-morpholinothieno[3,2-d]pyrimidin-6-yl)methyl)(methyl)amino)pyrimidine-5-carboxamide]",188 to 192,< 100,100 to 1000
"CC(O)c1ccc(F)c(-c2nc(N3CCOCC3)c3sc(CN(C)c4ncc(C(=O)NO)cn4)cc3n2)c1 (stereo not drawn) [Compound 295, 2-(((2-(2-Fluoro-5-(1-hydroxyethyl)phenyl)-4-morpholinothieno[3,2-d]pyrimidin-6-yl)methyl)(methyl)amino)-N-hydroxypyrimidine-5-carboxamide]",230 to 235,< 100,100 to 1000
"Nc1ccc(-c2nc(N3CCOCC3)c3sc(C(=O)NCC4CCN(c5ncc(C(=O)NO)cn5)CC4)cc3n2)cc1 [Compound 307, 2-(4-Aminophenyl)-N-((1-(5-(hydroxycarbamoyl)pyrimidin-2-yl)piperidin-4-yl)methyl)-4-morpholinothieno[3,2-d]pyrimidine-6-carboxamide]",232 to 238,< 100,100 to 1000
"CNc1ccc(-c2nc(N3CCOCC3)c3sc(S(=O)(=O)NCC4CCN(c5ncc(C(=O)NO)cn5)CC4)cc3n2)cn1 [Compound 310, N-Hydroxy-2-(4-((2-(6-(methylamino)pyridin-3-yl)-4-morpholinothieno[3,2-d]pyrimidine-6-sulfonamido)methyl)piperidin-1-yl)pyrimidine-5-carboxamide]",190 to 197,< 100,< 100
"CS(=O)(=O)N1CCN(Cc2cc3nc(-c4ccc(OCCCCC(=O)NO)cc4)nc(N4CCOCC4)c3s2)CC1 [Compound 319, N-Hydroxy-5-(4-(6-((4-(methylsulfonyl)piperazin-1-yl)methyl)-4-morpholinothieno[3,2-d]pyrimidin-2-yl)phenoxy)pentanamide]",140 to 144,100 to 1000,100 to 1000
"CS(=O)(=O)N1CCN(Cc2cc3nc(-c4ccc(OCCCCCC(=O)NO)cc4)nc(N4CCOCC4)c3s2)CC1 [Compound 320, N-Hydroxy-6-(4-(6-((4-(methylsulfonyl)piperazin-1-yl)methyl)-4-morpholinothieno[3,2-d]pyrimidin-2-yl)phenoxy)hexanamide]",140 to 142,100 to 1000,100 to 1000
